The record followed here is paper PMC10175918 (Communications Biology, 2023).

Like-named read-outs stand apart in the source and are kept apart here.

Common to all, as to test: TGFα-shedding assay-based GPCR screening with chimeric Gα subunit proteins
Common to all, as to type: cell-based

For assay [1], the target named is T1, 348 GPCRs (Homo sapiens, UniProt Q99679).
T1 construct: expressed in transfected cells; host or cells: HEK293A
The conditions noted are these: 10µM, Favipiravir 100μM.

Assay [2] has as its target T2, 348 GPCRs (Homo sapiens, UniProt Q9NYM4).
T2 construct: expressed in transfected cells; host or cells: HEK293A
The following applies: 10µM, Favipiravir 100μM.

Assay [3] has as its target T3, 348 GPCRs (Homo sapiens, UniProt Q96LB2).
T3 construct: expressed in transfected cells; host or cells: HEK293A
The conditions noted are these: 10µM, Favipiravir 100μM.

In assay [4] the target is T4, 348 GPCRs (Homo sapiens, UniProt P18825).
T4 construct: expressed in transfected cells; host or cells: HEK293A
T4 sequence (P18825 1-462): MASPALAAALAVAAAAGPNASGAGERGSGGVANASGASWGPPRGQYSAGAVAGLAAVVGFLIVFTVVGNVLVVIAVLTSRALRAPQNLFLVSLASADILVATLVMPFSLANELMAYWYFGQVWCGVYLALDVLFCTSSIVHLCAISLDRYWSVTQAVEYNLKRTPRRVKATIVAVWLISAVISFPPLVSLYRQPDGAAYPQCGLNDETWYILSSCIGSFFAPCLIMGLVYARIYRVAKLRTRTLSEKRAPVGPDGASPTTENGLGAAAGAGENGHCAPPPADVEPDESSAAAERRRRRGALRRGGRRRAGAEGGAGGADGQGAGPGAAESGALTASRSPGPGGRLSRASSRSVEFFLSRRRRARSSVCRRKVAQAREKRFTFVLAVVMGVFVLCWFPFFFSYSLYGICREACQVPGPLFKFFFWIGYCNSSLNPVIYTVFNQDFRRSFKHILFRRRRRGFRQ

Assay [5] addresses 348 GPCRs (Homo sapiens, UniProt P30874). The conditions noted are these: 10µM, Favipiravir 100μM.
The target in assay [6] is T5, 348 GPCRs (Homo sapiens, UniProt Q99680).
T5 construct: expressed in transfected cells; host or cells: HEK293A
The conditions noted are these: 10µM, Favipiravir 100μM.

Assay [7] has as its target T6, 348 GPCRs (Homo sapiens, UniProt P32249).
T6 construct: expressed in transfected cells; host or cells: HEK293A
The following applies: EBI2 (G protein-coupled receptor 183 (Epstein-Barr Virus Induced Gene 2)); 10µM, Favipiravir 100μM.

In assay [8] the target is T7, 348 GPCRs (Homo sapiens, UniProt Q14831).
T7 construct: expressed in transfected cells; host or cells: HEK293A
The conditions noted are these: 10µM, Favipiravir 100μM.

The target of assay [9] is T8, 348 GPCRs (Homo sapiens, UniProt O00574).
T8 construct: expressed in transfected cells; host or cells: HEK293A

The target of assay [10] is T9, 348 GPCRs (Homo sapiens, UniProt O14842).
T9 construct: expressed in transfected cells; host or cells: HEK293A
The conditions noted are these: 10µM, Favipiravir 100μM.

The target in assay [11] is T10, 348 GPCRs (Homo sapiens, UniProt Q9H1C0).
T10 construct: expressed in transfected cells; host or cells: HEK293A
The conditions noted are these: 10µM, Favipiravir 100μM.

Assay [12] concerns the target T11, 348 GPCRs (Homo sapiens, UniProt O00222).
T11 construct: expressed in transfected cells; host or cells: HEK293A
The conditions noted are these: 10µM, Favipiravir 100μM.

Assay [13] has as its target T12, 348 GPCRs (Homo sapiens, UniProt P18089).
T12 construct: expressed in transfected cells; host or cells: HEK293A
T12 sequence (P18089 1-450): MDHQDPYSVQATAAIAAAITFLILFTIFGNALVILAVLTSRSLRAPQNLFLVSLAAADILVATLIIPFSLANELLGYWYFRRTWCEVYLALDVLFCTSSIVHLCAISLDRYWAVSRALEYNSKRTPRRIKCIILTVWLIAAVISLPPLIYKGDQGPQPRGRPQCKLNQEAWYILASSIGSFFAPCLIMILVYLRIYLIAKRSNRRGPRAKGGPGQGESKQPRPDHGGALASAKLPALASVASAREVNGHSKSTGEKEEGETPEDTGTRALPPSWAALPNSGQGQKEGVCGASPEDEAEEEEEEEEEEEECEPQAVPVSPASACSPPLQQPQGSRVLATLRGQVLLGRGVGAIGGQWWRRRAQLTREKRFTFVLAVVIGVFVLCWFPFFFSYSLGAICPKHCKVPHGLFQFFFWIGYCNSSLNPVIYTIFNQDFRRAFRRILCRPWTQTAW

Assay [14] deals with T13, 348 GPCRs (Homo sapiens, UniProt O43603).
T13 construct: expressed in transfected cells; host or cells: HEK293A
T13 sequence (O43603 1-387): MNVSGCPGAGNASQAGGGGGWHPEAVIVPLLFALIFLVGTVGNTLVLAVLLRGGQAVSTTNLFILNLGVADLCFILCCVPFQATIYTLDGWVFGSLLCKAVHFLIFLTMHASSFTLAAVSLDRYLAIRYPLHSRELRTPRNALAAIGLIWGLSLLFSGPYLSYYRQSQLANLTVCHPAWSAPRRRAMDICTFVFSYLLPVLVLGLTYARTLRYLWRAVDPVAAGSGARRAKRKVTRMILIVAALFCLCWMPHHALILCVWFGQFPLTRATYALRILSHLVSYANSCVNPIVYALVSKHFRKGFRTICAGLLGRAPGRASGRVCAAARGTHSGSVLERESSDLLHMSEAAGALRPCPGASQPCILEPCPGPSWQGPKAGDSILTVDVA
The conditions noted are these: 10µM, Favipiravir 100μM.

The mark [15] stands for this setting: GPR21 (G Protein-Coupled Receptor 21), read-out: % GPCR activation compared to TPA.
The mark [16] stands for this setting: GPR83 (G Protein-Coupled Receptor 83), read-out: % GPCR activation compared to TPA.
Where [17] appears, read: MRGPRX1 (MAS-related GPR, member X1), read-out: % GPCR activation compared to TPA.
Setting [18] is: SSTR2 (somatostatin receptor 2), read-out: % GPCR activation compared to TPA.
The mark [19] stands for this setting: GPR22 (G Protein-Coupled Receptor 22), read-out: % GPCR activation compared to TPA.
Setting [20] is: GRM7 (glutamate receptor, metabotropic 7), read-out: % GPCR activation compared to TPA.
Setting [21] is: FFA1 (free fatty acid receptor 1), read-out: % GPCR activation compared to TPA.
Where [22] appears, read: LPAR5 (lysophosphatidic acid receptor 5), read-out: % GPCR activation compared to TPA.
The mark [23] stands for this setting: GRM8 (glutamate receptor, metabotropic 8), read-out: % GPCR activation compared to TPA.
Where [24] appears, read: GAL2 (galanin receptor 2), read-out: % GPCR activation compared to TPA.

T10 sequence (Q9H1C0 whole entry): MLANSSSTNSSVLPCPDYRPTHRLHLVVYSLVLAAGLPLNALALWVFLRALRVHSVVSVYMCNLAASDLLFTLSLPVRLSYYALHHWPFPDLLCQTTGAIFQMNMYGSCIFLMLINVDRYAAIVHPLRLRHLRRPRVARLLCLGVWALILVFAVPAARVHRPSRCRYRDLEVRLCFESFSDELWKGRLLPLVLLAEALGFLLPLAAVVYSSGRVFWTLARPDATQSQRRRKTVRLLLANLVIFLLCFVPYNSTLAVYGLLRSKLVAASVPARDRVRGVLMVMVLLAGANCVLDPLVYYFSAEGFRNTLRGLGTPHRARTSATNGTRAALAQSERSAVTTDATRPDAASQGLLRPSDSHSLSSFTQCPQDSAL
T11 sequence (O00222 34-908): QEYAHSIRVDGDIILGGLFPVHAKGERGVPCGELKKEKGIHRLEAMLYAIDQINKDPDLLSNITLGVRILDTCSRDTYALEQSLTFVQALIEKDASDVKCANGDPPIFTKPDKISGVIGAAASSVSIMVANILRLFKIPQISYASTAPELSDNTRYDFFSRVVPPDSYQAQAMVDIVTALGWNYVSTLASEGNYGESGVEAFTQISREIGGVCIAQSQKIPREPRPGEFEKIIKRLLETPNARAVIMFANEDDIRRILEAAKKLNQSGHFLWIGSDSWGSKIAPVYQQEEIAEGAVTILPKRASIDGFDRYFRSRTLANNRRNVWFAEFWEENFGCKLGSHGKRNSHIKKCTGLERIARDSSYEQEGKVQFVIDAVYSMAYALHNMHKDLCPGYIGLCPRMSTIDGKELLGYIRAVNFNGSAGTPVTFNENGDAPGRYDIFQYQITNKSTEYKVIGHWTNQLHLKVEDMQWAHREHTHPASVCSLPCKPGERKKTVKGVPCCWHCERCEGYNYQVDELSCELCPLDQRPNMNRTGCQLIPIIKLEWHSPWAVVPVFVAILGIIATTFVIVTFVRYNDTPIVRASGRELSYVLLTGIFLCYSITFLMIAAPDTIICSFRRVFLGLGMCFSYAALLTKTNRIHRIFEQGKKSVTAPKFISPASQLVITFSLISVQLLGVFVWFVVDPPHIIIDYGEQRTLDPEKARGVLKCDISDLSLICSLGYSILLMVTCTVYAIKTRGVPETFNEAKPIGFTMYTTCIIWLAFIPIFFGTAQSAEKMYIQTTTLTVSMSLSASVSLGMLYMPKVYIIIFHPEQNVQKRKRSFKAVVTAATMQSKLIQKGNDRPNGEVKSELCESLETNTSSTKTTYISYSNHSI
T3 sequence (Q96LB2 whole entry): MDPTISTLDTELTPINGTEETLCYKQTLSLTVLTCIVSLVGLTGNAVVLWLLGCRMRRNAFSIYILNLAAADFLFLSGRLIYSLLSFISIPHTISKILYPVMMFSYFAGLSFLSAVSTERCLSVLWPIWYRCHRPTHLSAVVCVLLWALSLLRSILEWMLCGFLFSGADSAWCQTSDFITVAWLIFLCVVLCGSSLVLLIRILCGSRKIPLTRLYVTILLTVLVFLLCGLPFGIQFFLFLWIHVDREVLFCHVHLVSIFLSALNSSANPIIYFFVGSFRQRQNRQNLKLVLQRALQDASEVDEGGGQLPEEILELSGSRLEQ
T2 sequence (Q9NYM4 17-423): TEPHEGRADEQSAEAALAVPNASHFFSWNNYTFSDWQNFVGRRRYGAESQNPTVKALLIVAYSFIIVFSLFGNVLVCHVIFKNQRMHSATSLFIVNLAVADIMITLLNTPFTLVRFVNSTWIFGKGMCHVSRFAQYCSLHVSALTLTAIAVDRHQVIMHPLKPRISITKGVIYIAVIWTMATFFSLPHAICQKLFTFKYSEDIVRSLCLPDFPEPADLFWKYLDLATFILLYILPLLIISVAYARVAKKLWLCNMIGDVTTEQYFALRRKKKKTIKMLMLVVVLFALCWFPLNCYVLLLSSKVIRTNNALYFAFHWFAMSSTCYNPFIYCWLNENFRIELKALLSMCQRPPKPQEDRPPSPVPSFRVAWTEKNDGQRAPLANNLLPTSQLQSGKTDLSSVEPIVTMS
T6 sequence (P32249 whole entry): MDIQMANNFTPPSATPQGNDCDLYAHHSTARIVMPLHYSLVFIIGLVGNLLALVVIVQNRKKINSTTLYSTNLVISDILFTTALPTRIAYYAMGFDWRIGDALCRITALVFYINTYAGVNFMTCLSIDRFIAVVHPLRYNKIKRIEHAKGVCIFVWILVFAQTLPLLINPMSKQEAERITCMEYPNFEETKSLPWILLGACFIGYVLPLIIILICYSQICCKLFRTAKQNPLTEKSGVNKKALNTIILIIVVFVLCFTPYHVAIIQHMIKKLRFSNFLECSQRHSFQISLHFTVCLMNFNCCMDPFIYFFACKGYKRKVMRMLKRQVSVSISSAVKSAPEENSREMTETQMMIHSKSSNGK
Chain of 348 GPCRs (Homo sapiens, UniProt P30874) (P30874 whole entry): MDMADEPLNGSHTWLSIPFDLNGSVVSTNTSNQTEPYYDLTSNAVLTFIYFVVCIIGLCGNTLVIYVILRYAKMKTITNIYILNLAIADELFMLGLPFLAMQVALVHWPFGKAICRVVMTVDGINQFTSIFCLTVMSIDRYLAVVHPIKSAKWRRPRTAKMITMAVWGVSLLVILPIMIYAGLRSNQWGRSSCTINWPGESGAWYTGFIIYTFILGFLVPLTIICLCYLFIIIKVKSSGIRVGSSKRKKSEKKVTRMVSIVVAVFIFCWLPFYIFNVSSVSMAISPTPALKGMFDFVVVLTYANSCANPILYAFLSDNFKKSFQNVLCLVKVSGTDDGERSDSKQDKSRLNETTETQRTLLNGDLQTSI
T7 sequence (Q14831 35-915): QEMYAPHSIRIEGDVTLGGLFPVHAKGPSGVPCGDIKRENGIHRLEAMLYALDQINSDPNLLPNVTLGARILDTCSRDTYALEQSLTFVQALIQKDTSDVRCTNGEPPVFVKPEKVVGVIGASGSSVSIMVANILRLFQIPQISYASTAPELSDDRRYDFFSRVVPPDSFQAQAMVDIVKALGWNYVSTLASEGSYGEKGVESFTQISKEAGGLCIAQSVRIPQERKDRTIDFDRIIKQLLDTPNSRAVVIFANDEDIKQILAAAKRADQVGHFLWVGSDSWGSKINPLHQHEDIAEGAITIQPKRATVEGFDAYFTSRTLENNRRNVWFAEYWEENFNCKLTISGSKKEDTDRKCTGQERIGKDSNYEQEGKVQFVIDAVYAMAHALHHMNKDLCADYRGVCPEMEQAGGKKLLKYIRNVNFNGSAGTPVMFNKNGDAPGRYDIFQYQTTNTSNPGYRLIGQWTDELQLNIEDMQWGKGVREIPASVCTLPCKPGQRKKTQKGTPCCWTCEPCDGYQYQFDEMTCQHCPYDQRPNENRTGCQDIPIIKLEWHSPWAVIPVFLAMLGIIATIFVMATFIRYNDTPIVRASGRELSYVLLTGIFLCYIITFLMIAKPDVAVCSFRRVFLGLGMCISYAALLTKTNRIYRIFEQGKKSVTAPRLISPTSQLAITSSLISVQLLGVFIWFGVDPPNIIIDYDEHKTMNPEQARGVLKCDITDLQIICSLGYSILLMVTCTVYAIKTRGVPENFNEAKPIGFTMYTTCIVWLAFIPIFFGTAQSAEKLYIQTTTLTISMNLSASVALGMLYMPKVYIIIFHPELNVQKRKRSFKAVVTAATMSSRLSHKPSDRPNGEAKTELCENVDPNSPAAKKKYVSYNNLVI
T5 sequence (Q99680 whole entry): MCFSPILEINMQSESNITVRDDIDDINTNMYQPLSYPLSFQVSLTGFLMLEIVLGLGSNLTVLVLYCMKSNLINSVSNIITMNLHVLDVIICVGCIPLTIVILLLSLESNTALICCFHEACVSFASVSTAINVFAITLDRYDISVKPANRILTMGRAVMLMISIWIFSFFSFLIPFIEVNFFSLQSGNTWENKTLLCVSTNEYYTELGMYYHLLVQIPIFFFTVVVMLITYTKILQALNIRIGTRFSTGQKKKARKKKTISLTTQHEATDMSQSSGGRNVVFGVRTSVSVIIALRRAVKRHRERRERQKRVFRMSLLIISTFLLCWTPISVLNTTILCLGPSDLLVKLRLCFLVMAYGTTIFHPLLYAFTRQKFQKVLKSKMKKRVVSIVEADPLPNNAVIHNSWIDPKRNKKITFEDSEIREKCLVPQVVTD
T8 sequence (O00574 whole entry): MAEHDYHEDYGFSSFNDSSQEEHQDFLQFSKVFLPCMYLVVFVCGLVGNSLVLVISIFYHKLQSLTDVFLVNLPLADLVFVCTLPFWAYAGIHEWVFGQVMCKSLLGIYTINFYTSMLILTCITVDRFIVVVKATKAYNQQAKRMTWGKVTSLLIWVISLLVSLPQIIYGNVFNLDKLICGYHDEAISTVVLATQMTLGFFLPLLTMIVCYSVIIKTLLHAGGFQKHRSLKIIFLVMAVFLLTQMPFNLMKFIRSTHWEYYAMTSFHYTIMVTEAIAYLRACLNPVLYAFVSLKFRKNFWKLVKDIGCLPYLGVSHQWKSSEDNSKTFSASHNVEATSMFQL
T1 sequence (Q99679 whole entry): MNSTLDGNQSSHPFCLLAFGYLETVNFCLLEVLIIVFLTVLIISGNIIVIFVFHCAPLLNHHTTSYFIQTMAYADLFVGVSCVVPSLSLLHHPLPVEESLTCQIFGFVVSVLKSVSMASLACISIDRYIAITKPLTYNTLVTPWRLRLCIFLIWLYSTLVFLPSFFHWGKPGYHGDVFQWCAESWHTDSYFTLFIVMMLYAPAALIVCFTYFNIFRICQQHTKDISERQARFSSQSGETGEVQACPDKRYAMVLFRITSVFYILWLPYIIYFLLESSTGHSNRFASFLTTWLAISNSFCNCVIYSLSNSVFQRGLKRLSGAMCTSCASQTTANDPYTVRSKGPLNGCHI

For `N#C[C@@]1(c2ccc3c(N)ncnn23)O[C@H](CO)[C@@H](O)[C@H]1O` [GS441524], the activation at 100 µM was 0.0472% on 348 GPCRs [1] (setting [15]); -1.11% at 348 GPCRs [2] (setting [16]); -1.59% on 348 GPCRs [3] (setting [17]); 0.701% on 348 GPCRs [6] (setting [19]); -0.925% on 348 GPCRs [14] (setting [24]). The activation at 10 µM on 348 GPCRs [4] (GPCR α2C (adrenoceptor alpha 2C), read-out: % GPCR activation compared to TPA) was 2.32%; at 348 GPCRs [5] (setting [18]) it was -0.998%; on 348 GPCRs [8] (setting [20]), 1.06%; at 348 GPCRs [9] (GPCR CXCR6 (C-X-C motif chemokine receptor 6), read-out: % GPCR activation compared to TPA), -0.956%; on 348 GPCRs [10] (setting [21]), -14.2%; at 348 GPCRs [11] (setting [22]), 2.96%. Moreover, the activation at 10 µM at 348 GPCRs [12] (setting [23]) was -1.24%; at 348 GPCRs [13] (GPCR α2B (adrenoceptor alpha 2B), read-out: % GPCR activation compared to TPA), -2.28%. The “% GPCR activation compared to TPA” value at 348 GPCRs [7] is listed as -1.471%.

In the case of `NC(=O)c1nc(F)cnc1O` [favipiravir, 6-fluoro-3-hydroxy-2-pyrazinecarboxamide], the activation at 100 µM is -0.0313% at 348 GPCRs [1] (setting [15]); -2.15% on 348 GPCRs [2] (setting [16]); -1.16% on 348 GPCRs [3] (setting [17]); 7% on 348 GPCRs [4] (GPCR α2C (adrenoceptor alpha 2C), 100μM, read-out: % GPCR activation compared to TPA); -0.704% at 348 GPCRs [6] (setting [19]); -1.02% at 348 GPCRs [9] (GPCR CXCR6 (C-X-C motif chemokine receptor 6), 100μM, read-out: % GPCR activation compared to TPA). The activation at 100 µM at 348 GPCRs [13] (GPCR α2B (adrenoceptor alpha 2B), 100μM, read-out: % GPCR activation compared to TPA) is -4.03%; at 348 GPCRs [14] (setting [24]) it was -0.244%. The activation at 10 µM on 348 GPCRs [5] (setting [18]) was -0.842%; at 348 GPCRs [8] (setting [20]), -0.143%; on 348 GPCRs [10] (setting [21]), -4.93%; on 348 GPCRs [11] (setting [22]) it was -1.99%; on 348 GPCRs [12] (setting [23]) it was -1.56%. For the same molecule, the “% GPCR activation compared to TPA” value at 348 GPCRs [7] is listed as -1.156%.

Consider `CCC(CC)COC(=O)[C@H](C)N[P@](=O)(OC[C@H]1O[C@@](C#N)(c2ccc3c(N)ncnn23)[C@H](O)[C@@H]1O)Oc1ccccc1` [remdesivir], for which the activation at 100 µM on 348 GPCRs [1] (read-out: % GPCR activation compared to TPA, GPR21 (G Protein-Coupled Receptor 21)) was -0.776%; at 348 GPCRs [2] (read-out: % GPCR activation compared to TPA, GPR83 (G Protein-Coupled Receptor 83)) it was -2.36%; on 348 GPCRs [3] (read-out: % GPCR activation compared to TPA, MRGPRX1 (MAS-related GPR, member X1)), 0.23%; at 348 GPCRs [6] (read-out: % GPCR activation compared to TPA, GPR22 (G Protein-Coupled Receptor 22)), -1.09%; on 348 GPCRs [14] (read-out: % GPCR activation compared to TPA, GAL2 (galanin receptor 2)) it was 0.971%. The activation at 10 µM on 348 GPCRs [4] (read-out: % GPCR activation compared to TPA, GPCR α2C (adrenoceptor alpha 2C)) is 15.6%; at 348 GPCRs [5] (read-out: % GPCR activation compared to TPA, SSTR2 (somatostatin receptor 2)), 0.304%; at 348 GPCRs [8] (read-out: % GPCR activation compared to TPA, GRM7 (glutamate receptor, metabotropic 7)), -0.738%; at 348 GPCRs [9] (read-out: % GPCR activation compared to TPA, GPCR CXCR6 (C-X-C motif chemokine receptor 6)) it was 0.837%; on 348 GPCRs [10] (read-out: % GPCR activation compared to TPA, FFA1 (free fatty acid receptor 1)) it was -6.96%; on 348 GPCRs [11] (read-out: % GPCR activation compared to TPA, LPAR5 (lysophosphatidic acid receptor 5)), 2.15%. The activation at 10 µM was -1.11% on 348 GPCRs [12] (read-out: % GPCR activation compared to TPA, GRM8 (glutamate receptor, metabotropic 8)) and 5.93% at 348 GPCRs [13] (read-out: % GPCR activation compared to TPA, GPCR α2B (adrenoceptor alpha 2B)). For the same molecule, the “% GPCR activation compared to TPA” value on 348 GPCRs [7] was found to be 0.4815%.
